Source: publication PMC3757052, “Molecular Cloning and Characterization of Novel Glutamate-Gated Chloride Channel Subunits from Schistosoma mansoni” (PLoS Pathogens, 2013)

Assays:
Assay in all cases: two-electrode voltage clamp in Xenopus oocytes
Format in all cases: cell-based
SmGluCl-1 = target: T1, SmGluCl-1 (Schistosoma mansoni, UniProt G4VR43)
T1 construct: full-length subunit co-expressed 1:1 with SmGluCl-2.1 (heteromer; no functional SmGluCl-1 homomer); with SmGluCl-2.1

SmGluCl-2.1 (SmGluCl-2) = target: T2, SmGluCl-2.1 (SmGluCl-2) (Schistosoma mansoni, UniProt T2C5A6)
T2 construct: gene GluCl; full-length subunit isoform 1, homomeric receptor (KC861382)

SmGluCl-3 = target: T3, SmGluCl-3 (Schistosoma mansoni, UniProt T2C5W6)
T3 construct: gene GluCl; full-length subunit, homomeric receptor (KC861384)
T3 sequence (T2C5W6 entry or part of it): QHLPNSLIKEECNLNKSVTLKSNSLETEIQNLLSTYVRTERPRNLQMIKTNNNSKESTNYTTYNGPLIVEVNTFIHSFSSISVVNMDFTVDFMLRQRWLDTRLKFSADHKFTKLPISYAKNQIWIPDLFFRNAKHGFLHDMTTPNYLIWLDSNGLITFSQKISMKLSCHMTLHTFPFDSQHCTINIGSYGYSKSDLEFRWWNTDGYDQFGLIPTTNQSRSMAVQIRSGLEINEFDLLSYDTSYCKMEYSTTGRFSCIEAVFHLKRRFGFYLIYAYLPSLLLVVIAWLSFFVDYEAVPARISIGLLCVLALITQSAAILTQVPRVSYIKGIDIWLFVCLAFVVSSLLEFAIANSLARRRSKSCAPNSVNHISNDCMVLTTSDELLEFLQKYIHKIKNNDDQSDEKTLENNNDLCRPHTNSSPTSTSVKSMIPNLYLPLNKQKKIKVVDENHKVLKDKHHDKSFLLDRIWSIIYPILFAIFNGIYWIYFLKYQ

T1 sequence (T2C5A6 entry or part of it): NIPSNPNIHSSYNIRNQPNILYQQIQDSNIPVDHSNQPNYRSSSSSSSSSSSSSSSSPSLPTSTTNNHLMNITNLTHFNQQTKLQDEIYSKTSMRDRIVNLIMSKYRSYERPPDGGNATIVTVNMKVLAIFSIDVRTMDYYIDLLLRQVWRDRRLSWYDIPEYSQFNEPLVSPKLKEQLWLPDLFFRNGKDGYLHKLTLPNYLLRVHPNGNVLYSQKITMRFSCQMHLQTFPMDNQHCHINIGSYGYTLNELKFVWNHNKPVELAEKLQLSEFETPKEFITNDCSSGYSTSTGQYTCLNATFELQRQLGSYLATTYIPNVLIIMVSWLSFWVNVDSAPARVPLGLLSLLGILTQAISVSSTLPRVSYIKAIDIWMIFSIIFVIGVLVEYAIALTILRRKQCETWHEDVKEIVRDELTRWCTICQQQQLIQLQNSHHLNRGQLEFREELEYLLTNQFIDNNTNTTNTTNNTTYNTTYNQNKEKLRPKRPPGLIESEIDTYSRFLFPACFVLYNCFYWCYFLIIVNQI
T1 sequence (G4VR43 entry or part of it): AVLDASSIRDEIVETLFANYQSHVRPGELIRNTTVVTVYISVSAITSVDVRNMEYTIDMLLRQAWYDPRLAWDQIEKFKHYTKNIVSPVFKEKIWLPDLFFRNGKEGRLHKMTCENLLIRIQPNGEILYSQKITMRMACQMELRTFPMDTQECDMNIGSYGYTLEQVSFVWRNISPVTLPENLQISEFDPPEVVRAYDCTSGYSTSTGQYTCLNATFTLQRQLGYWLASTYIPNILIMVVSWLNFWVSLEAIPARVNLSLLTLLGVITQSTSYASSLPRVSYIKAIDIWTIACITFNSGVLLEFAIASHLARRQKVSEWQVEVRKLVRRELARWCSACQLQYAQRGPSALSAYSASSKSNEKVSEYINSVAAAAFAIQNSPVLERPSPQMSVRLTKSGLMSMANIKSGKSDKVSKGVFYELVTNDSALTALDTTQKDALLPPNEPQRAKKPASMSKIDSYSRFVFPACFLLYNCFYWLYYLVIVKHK
T2 sequence (T2C5A6 entry or part of it): as the sequence (T2C5A6 entry or part of it) above

Compound: N[C@@H](CCC(=O)O)C(=O)O [L-glutamate]
- EC50 (SmGluCl-1): 26.3 ± 2 µM
- EC50 (SmGluCl-2.1 (SmGluCl-2)): 11.8 ± 0.6 µM
- EC50 (SmGluCl-3): 6.9 ± 0.5 µM
